# Results: patent US20150239889A1, “PYRAZOLOPYRIMIDINE COMPOUND” (MITSUBISHI TANABE PHARMA CORPORATION, priority 2012, published 2015)
# What was measured:
# [1] = target: T1, human HIF-PHD3 (Homo sapiens, UniProt Q9H6Z9); assay: HIF-PHD inhibition assay (fluorescence polarization), human HIF-PHD3; type: biochemical; conditions: 2-oxoglutaric acid 166 μmol/L
# T1 construct: purchased CrystalGenomics Ltd
# Description: (§1) The activity of the test compound to inhibit human HIF-PHD2 and human HIF-PHD3 was determined.
# (§2) The value of enzyme activity was calculated by subtracting the value of fluorescence polarization before addition of the enzyme from the value of fluorescence polarization after addition of enzyme (mP value).
# (§3) FAM: 5′-fluoresceinamide ACA: aminocaproic acid
# [2] = target: T2, human HIF-PHD2 (Homo sapiens, UniProt Q9GZT9); assay: HIF-PHD inhibition assay (fluorescence polarization), human HIF-PHD2; type: biochemical; conditions: 2-oxoglutaric acid 3.33 μmol/L
# T2 construct: purchased CrystalGenomics Ltd
# T2 sequence (Q9GZT9 2-426 limits assumed): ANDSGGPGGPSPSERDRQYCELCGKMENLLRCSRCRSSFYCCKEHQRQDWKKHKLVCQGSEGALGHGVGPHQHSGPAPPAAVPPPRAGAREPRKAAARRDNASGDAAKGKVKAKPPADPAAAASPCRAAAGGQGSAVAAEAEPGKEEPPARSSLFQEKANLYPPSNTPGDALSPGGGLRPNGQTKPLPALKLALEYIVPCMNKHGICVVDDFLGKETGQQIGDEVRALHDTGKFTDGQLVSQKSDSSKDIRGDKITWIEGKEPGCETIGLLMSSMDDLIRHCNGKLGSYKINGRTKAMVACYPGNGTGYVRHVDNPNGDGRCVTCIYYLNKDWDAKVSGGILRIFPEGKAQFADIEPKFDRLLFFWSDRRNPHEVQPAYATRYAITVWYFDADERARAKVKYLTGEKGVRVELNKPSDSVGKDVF
# Description: as §1, §2, §3
# T1 sequence (Q9H6Z9 whole entry): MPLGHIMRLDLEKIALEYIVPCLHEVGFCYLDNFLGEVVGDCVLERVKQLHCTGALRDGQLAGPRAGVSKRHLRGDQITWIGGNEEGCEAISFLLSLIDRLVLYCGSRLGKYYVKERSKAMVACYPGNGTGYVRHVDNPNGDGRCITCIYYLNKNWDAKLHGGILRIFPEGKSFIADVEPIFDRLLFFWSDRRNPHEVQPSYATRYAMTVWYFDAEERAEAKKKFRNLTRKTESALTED
Compound,IC50 [1],IC50 [2]
CC(c1cc(Cl)ccc1Cl)n1ncc2nc(-n3cc(C(=O)O)cn3)nc(O)c21 (racemic) [Example 264],490 nM,–
CC(c1ccc(N2CCC(C(F)(F)F)CC2)cc1)n1ncc2nc(-n3cc(C(=O)O)cn3)nc(O)c21 (racemic) [Example 423],740 nM,31 nM
CC(c1ccc(N2CCC(F)CC2)cc1)n1ncc2nc(-n3cc(C(=O)O)cn3)nc(O)c21 (racemic) [Example 424],480 nM,44 nM
CC1CCN(c2ccc(C(C)n3ncc4nc(-n5cc(C(=O)O)cn5)nc(O)c43)cc2)CC1 (racemic) [Example 425],390 nM,48 nM
"Cc1ccc(C(C)n2ncc3nc(-n4cc(C(=O)O)cn4)nc(O)c32)cc1 (single isomer, unassigned) [Example 292]",590 nM,39 nM
"Cc1cc(C(C)n2ncc3nc(-n4cc(C(=O)O)cn4)nc(O)c32)ccc1Cl (single isomer, unassigned) [Example 294]",470 nM,22 nM
"Cc1ccc(C(C)n2ncc3nc(-n4cc(C(=O)O)cn4)nc(O)c32)cc1F (single isomer, unassigned) [Example 296]",480 nM,55 nM
"Cc1ccc(C(C)n2ncc3nc(-n4cc(C(=O)O)cn4)nc(O)c32)cc1Cl (single isomer, unassigned) [Example 298]",300 nM,29 nM
"Cc1cc(F)cc(C(C)n2ncc3nc(-n4cc(C(=O)O)cn4)nc(O)c32)c1 (single isomer, unassigned) [Example 300]",490 nM,59 nM
"Cc1cc(C(C)n2ncc3nc(-n4cc(C(=O)O)cn4)nc(O)c32)ccc1F (single isomer, unassigned) [Example 302]",570 nM,50 nM
"CC(c1ccc(F)c(C(F)(F)F)c1)n1ncc2nc(-n3cc(C(=O)O)cn3)nc(O)c21 (single isomer, unassigned) [Example 304]",230 nM,15 nM
"CC(c1cc(F)cc(Cl)c1)n1ncc2nc(-n3cc(C(=O)O)cn3)nc(O)c21 (single isomer, unassigned) [Example 306]",450 nM,62 nM
"CC(c1cc(Cl)cc(Cl)c1)n1ncc2nc(-n3cc(C(=O)O)cn3)nc(O)c21 (single isomer, unassigned) [Example 308]",510 nM,54 nM
"Cc1cc(C)cc(C(C)n2ncc3nc(-n4cc(C(=O)O)cn4)nc(O)c32)c1 (single isomer, unassigned) [Example 310]",470 nM,57 nM
"Cc1ccc(Cl)cc1C(C)n1ncc2nc(-n3cc(C(=O)O)cn3)nc(O)c21 (single isomer, unassigned) [Example 312]",510 nM,110 nM
"Cc1ccc(F)c(C(C)n2ncc3nc(-n4cc(C(=O)O)cn4)nc(O)c32)c1 (single isomer, unassigned) [Example 314]",800 nM,61 nM
"CC(c1ccc(Cl)c(C(F)(F)F)c1)n1ncc2nc(-n3cc(C(=O)O)cn3)nc(O)c21 (single isomer, unassigned) [Example 316]",470 nM,29 nM
"CC(c1cc(Cl)c(Cl)s1)n1ncc2nc(-n3cc(C(=O)O)cn3)nc(O)c21 (single isomer, unassigned) [Example 320]",480 nM,18 nM
"CCC(c1ccc(F)cc1)n1ncc2nc(-n3cc(C(=O)O)cn3)nc(O)c21 (single isomer, unassigned) [Example 325]",630 nM,36 nM
"CCC(c1ccc(C)cc1)n1ncc2nc(-n3cc(C(=O)O)cn3)nc(O)c21 (single isomer, unassigned) [Example 329]",590 nM,120 nM
"CCC(c1ccc(F)c(F)c1)n1ncc2nc(-n3cc(C(=O)O)cn3)nc(O)c21 (single isomer, unassigned) [Example 331]",420 nM,19 nM

Compound,IC50 [1],IC50 [2]
"CCC(c1cc(F)cc(F)c1)n1ncc2nc(-n3cc(C(=O)O)cn3)nc(O)c21 (single isomer, unassigned) [Example 333]",320 nM,46 nM
"CCC(c1cc(C(F)(F)F)cc(C(F)(F)F)c1)n1ncc2nc(-n3cc(C(=O)O)cn3)nc(O)c21 (single isomer, unassigned) [Example 335]",–,76 nM
"CCC(c1ccc(F)c(Cl)c1)n1ncc2nc(-n3cc(C(=O)O)cn3)nc(O)c21 (single isomer, unassigned) [Example 338]",420 nM,28 nM
"CCC(c1cc(F)cc(Cl)c1)n1ncc2nc(-n3cc(C(=O)O)cn3)nc(O)c21 (single isomer, unassigned) [Example 340]",300 nM,16 nM
"CCC(c1cccc(C(F)(F)F)c1)n1ncc2nc(-n3cc(C(=O)O)cn3)nc(O)c21 (single isomer, unassigned) [Example 342]",480 nM,36 nM
"CCC(c1ccc(Cl)c(C)c1)n1ncc2nc(-n3cc(C(=O)O)cn3)nc(O)c21 (single isomer, unassigned) [Example 347]",400 nM,38 nM
"CCC(c1ccc(C)c(Cl)c1)n1ncc2nc(-n3cc(C(=O)O)cn3)nc(O)c21 (single isomer, unassigned) [Example 349]",390 nM,67 nM
"CCC(c1ccc(Cl)cc1F)n1ncc2nc(-n3cc(C(=O)O)cn3)nc(O)c21 (single isomer, unassigned) [Example 351]",210 nM,24 nM
"CC(C)C(c1ccc(F)cc1)n1ncc2nc(-n3cc(C(=O)O)cn3)nc(O)c21 (single isomer, unassigned) [Example 355]",540 nM,120 nM
"CC(C)C(c1ccc(C(F)(F)F)cc1)n1ncc2nc(-n3cc(C(=O)O)cn3)nc(O)c21 (single isomer, unassigned) [Example 357]",390 nM,77 nM
"CC(C)C(c1ccc(F)c(F)c1)n1ncc2nc(-n3cc(C(=O)O)cn3)nc(O)c21 (single isomer, unassigned) [Example 359]",340 nM,23 nM
O=C(O)c1cnn(-c2nc(O)c3c(cnn3CC3(c4ccccc4)CC3)n2)c1 [Example 122],–,74 nM
O=C(O)c1cnn(-c2nc(O)c3c(cnn3CC3CCNCC3)n2)c1 [Example 169],2100 nM,–
C[C@@H](c1c(F)cccc1F)n1ncc2nc(-n3cc(C(=O)O)cn3)nc(O)c21 [Example 256],–,160 nM
C[C@@H](c1cc(F)ccc1F)n1ncc2nc(-n3cc(C(=O)O)cn3)nc(O)c21 [Example 261],–,72 nM
C[C@@H](c1cc(Cl)ccc1Cl)n1ncc2nc(-n3cc(C(=O)O)cn3)[nH]c(=O)c21 [Example 263],610 nM,–
Cc1cc(Cl)cc([C@@H](C)n2ncc3nc(-n4cc(C(=O)O)cn4)nc(O)c32)c1 [Example 266],–,73 nM
CCC(c1ccc(C)c(Cl)c1)n1ncc2nc(-n3cc(C(=O)O)cn3)nc(O)c21 (stereo not drawn) [Example 348],–,110 nM
O=C(O)c1cnn(-c2nc(O)c3c(cnn3Cc3ccc(N4CCCC4=O)cc3)n2)c1 [Example 419],–,44 nM
C[C@@H](c1ccc(F)cc1F)n1nc(C2CC2)c2nc(-n3cc(C(=O)O)cn3)nc(O)c21 [Example 460],–,180 nM
O=C(O)c1cnn(-c2nc(O)c3c(n2)c(Cc2ccccc2)nn3CC2CCCCC2)c1 [Example 504],–,160 nM
